# Marks after values point to notes of the source that are not given here.
# Tests used:
# [1] = Quality of sweetness: sensory attributes scored on a 15-point unstructured line scale; type: in vivo; parameters: key to Stale Flavor / Metallic Flavor / Mouth Numbing / Mouthburn / Stale Aftertaste / Metallic Aftertaste / Overall Aroma / Sweet Aromatic Aroma / Stale Aroma: scores on a 15-point unstructured line scale; conditions: for Metallic Aftertaste / Metallic Flavor / Mouth Numbing / Mouthburn / Stale Flavor / Overall Aroma / Stale Aftertaste / Stale Aroma / Sweet Aromatic Aroma / Astringency / Bitterness / Bitterness Aftertaste / Black Licorice Aftertaste / Black Licorice Flavor / Cooling / Overall Aftertaste / Overall Flavor / Sweet Aromatic Aftertaste / Sweet Aromatic Flavor / Sweetness / Sweetness Aftertaste: mean score, 15-point line scale, two replications, room temperature; for Overall Aroma / Stale Aftertaste / Stale Aroma / Sweet Aromatic Aroma: more than 50% of responses zero; for Astringency / Bitterness / Bitterness Aftertaste / Black Licorice Aftertaste / Black Licorice Flavor / Cooling / Overall Aftertaste / Overall Flavor / Sweet Aromatic Aftertaste / Sweet Aromatic Flavor / Sweetness / Sweetness Aftertaste: same superscript letter = not significantly different (95%); for characteristics which were not significantly different from sucrose (number): Fisher's LSD 5%, 95% confidence level
# Description: The quality of sweetness of the rebaudioside A derivative products 1 (II), 2 (IV), 3 (III), and 4 (V) also was evaluated and compared to that of rebaudioside A, rebaudioside B, rebaudioside F, and sucrose at room temperature. For each attribute, the sweeteners received a score based on a 15-point unstructured line scale. […] A multiple comparison test, Fisher's LSD 5%, aided in the comparative analysis of the scores.
# [2] = Sweetness intensity of a water sample of derivative product compared with a water sample of sucrose (Example 4); type: in vivo; conditions: for Sweetness Intensity of Derivative Product (as compared to equivalent amount of sucrose): in water, amount of sample by weight: 1 (II) 3.6 %, 2 (IV) 1.1 %, 3 (III) 9.7 %, 4 (V) 6 %
# Description: The sweetness intensity of the foregoing rebaudioside A derivative products was analyzed by comparing the sweetness intensity of a water sample having a particular amount of sucrose with a second water sample having an identical amount of a rebaudioside A derivative product.
# [3] = Sweetness potency of derivative products compared to sucrose at iso-sweetness levels (Example 1); conditions: in vivo
# Source text: These rebaudioside A derivative products were characterized as having an intense sweetening potency. […] Thus, the rebaudioside A derivative products are suitable for use as sweeteners for sweetenable compositions.
molecule,measurement,setting,value
"CC1(C(=O)OC2OC(CO)C(O)C(O)C2O)CCCC2(C)C3CCC4(OC5OC(CO)C(O)C(OC6OC(CO)C(O)C(O)C6O)C5OC5OC(CO)C(O)C(O)C5O)CC3(CCC12)CC4(C)O [Derivative Product 1 (II), 13-[(2-O-β-D-glucopyranosyl-3-O-β-D-glucopyranosyl-β-D-glucopyranosyl)oxy]-16-hydroxy kauran-18-oic acid β-D-glucopyranosyl ester]",Metallic Aftertaste,[1],0.67
same,Metallic Flavor,[1],0.71
same,Mouth Numbing,[1],0.38
same,Mouthburn,[1],1.11
same,Stale Flavor,[1],1.01
same,Overall Aroma,[1],0.17
same,Stale Aftertaste,[1],0.56
same,Stale Aroma,[1],0.10
same,Sweet Aromatic Aroma,[1],0.04
same,Astringency,[1],2.38^c
same,Bitterness,[1],2.28^bcd
same,Bitterness Aftertaste,[1],1.32^cd
same,Black Licorice Aftertaste,[1],0.00^c
same,Black Licorice Flavor,[1],0.00^d
same,Cooling,[1],0.29^bc
same,Overall Aftertaste,[1],2.18^d
same,Overall Flavor,[1],3.14^c
same,Sweet Aromatic Aftertaste,[1],0.09^d
same,Sweet Aromatic Flavor,[1],0.06^c
same,Sweetness,[1],1.54^d
same,Sweetness Aftertaste,[1],0.70^d
same,Sweetness Intensity of Derivative Product (as compared to equivalent amount of sucrose),[2],30
same,"sweetness intensity, times that of sucrose","[2]; water solution vs same weight percentage of sucrose, 3.6 weight percent for 1 (II)",at least 30 times
"CC1=CC23CCC4C(C)(C(=O)OC5OC(CO)C(O)C(O)C5O)CCCC4(C)C2CCC1(OC1OC(CO)C(O)C(OC2OC(CO)C(O)C(O)C2O)C1OC1OC(CO)C(O)C(O)C1O)C3 [Derivative Product 2 (IV), 13-[(2-O-β-D-glucopyranosyl-3-O-β-D-glucopyranosyl-β-D-glucopyranosyl)oxy]kaur-15-en-18-oic acid β-D-glucopyranosyl ester]",characteristics which were not significantly different from sucrose (number),[1],8
same,overall flavor and sweetness relative to sucrose,[1]; in vivo,comparable to sucrose
same,Metallic Aftertaste,[1],0.88
same,Metallic Flavor,[1],0.82
same,Mouth Numbing,[1],0.97
same,Mouthburn,[1],1.45
same,Stale Flavor,[1],1.21
same,Overall Aroma,[1],0.09
same,Stale Aftertaste,[1],0.74
same,Stale Aroma,[1],0.06
same,Sweet Aromatic Aroma,[1],0.00
same,Astringency,[1],2.90^ab
same,Bitterness,[1],2.86^ab
same,Bitterness Aftertaste,[1],1.82^ab
same,Black Licorice Aftertaste,[1],0.00^c
same,Black Licorice Flavor,[1],0.07^d
same,Cooling,[1],0.12^c
same,Overall Aftertaste,[1],2.35^d
same,Overall Flavor,[1],3.58^c
same,Sweet Aromatic Aftertaste,[1],0.20^cd
same,Sweet Aromatic Flavor,[1],0.19^bc
same,Sweetness,[1],1.14^d
same,Sweetness Aftertaste,[1],0.41^d
same,Sweetness Intensity of Derivative Product (as compared to equivalent amount of sucrose),[2],20
"CC1(C(=O)O)CCCC2(C)C3CCC4(OC5OC(CO)C(O)C(OC6OC(CO)C(O)C(O)C6O)C5OC5OC(CO)C(O)C(O)C5O)CC3(CCC12)CC4(C)O [Derivative Product 3 (III), 13-[(2-O-β-D-glucopyranosyl-3-O-β-D-glucopyranosyl-β-D-glucopyranosyl)oxy]-16-hydroxy kauran-18-oic acid]",taste quality,[3],sweet clean taste similar to sugar
same,Metallic Aftertaste,[1],0.83
same,Metallic Flavor,[1],1.02
same,Mouth Numbing,[1],1.09
same,Mouthburn,[1],1.15
same,Stale Flavor,[1],0.63
same,Overall Aroma,[1],0.09
same,Stale Aftertaste,[1],0.41
same,Stale Aroma,[1],0.00
same,Sweet Aromatic Aroma,[1],0.08
same,Astringency,[1],3.27^a
same,Bitterness,[1],2.90^ab
same,Bitterness Aftertaste,[1],1.75^abc
same,Black Licorice Aftertaste,[1],1.37^a
same,Black Licorice Flavor,[1],1.84^ab
same,Cooling,[1],0.57^b
same,Overall Aftertaste,[1],5.72^ab
same,Overall Flavor,[1],10.02^a
same,Sweet Aromatic Aftertaste,[1],0.68^abc
same,Sweet Aromatic Flavor,[1],0.77^ab
same,Sweetness,[1],9.73^a
same,Sweetness Aftertaste,[1],5.38^ab
same,Sweetness Intensity of Derivative Product (as compared to equivalent amount of sucrose),[2],190
"CC1=CC23CCC4C(C)(C(=O)O)CCCC4(C)C2CCC1(OC1OC(CO)C(O)C(OC2OC(CO)C(O)C(O)C2O)C1OC1OC(CO)C(O)C(O)C1O)C3 [Derivative Product 4 (V), 13-[(2-O-β-D-glucopyranosyl-3-O-β-D-glucopyranosyl-β-D-glucopyranosyl)oxy]kaur-15-en-18-oic acid]",taste quality,[3],sweet clean taste similar to sugar
same,characteristics which were not significantly different from sucrose (number),[1],8
same,Metallic Aftertaste,[1],0.63
same,Metallic Flavor,[1],0.87
same,Mouth Numbing,[1],0.90
same,Mouthburn,[1],1.23
same,Stale Flavor,[1],0.77
same,Overall Aroma,[1],0.19
same,Stale Aftertaste,[1],0.47
same,Stale Aroma,[1],0.09
same,Sweet Aromatic Aroma,[1],0.00
same,Astringency,[1],3.01^ab
same,Bitterness,[1],2.08^cde
same,Bitterness Aftertaste,[1],1.38^bcd
same,Black Licorice Aftertaste,[1],1.25^a
same,Black Licorice Flavor,[1],1.40^bc
same,Cooling,[1],0.70^ab
same,Overall Aftertaste,[1],5.24^b
same,Overall Flavor,[1],6.44^b
same,Sweet Aromatic Aftertaste,[1],0.83^ab
same,Sweet Aromatic Flavor,[1],0.75^ab
same,Sweetness,[1],6.04^b
same,Sweetness Aftertaste,[1],4.85^b
same,Sweetness Intensity of Derivative Product (as compared to equivalent amount of sucrose),[2],120
"C=C1C[C@@]23CC[C@H]4[C@@](C)(CCC[C@@]4(C)C(=O)OC4OC(CO)C(O)C(O)C4O)[C@@H]2CC[C@]1(OC1OC(CO)C(O)C(OC2OC(CO)C(O)C(O)C2O)C1OC1OC(CO)C(O)C(O)C1O)C3 (stereo partly shown) [Reb. A, Rebaudioside A]",Metallic Aftertaste,[1],0.80
same,Metallic Flavor,[1],0.97
same,Mouth Numbing,[1],0.76
same,Mouthburn,[1],1.29
same,Stale Flavor,[1],0.89
same,Overall Aroma,[1],0.16
same,Stale Aftertaste,[1],0.48
same,Stale Aroma,[1],0.00
same,Sweet Aromatic Aroma,[1],0.14
same,Astringency,[1],3.14^ab
same,Bitterness,[1],3.43^a
same,Bitterness Aftertaste,[1],2.21^a
same,Black Licorice Aftertaste,[1],1.47^a
same,Black Licorice Flavor,[1],2.31^a
same,Cooling,[1],1.10^a
same,Overall Aftertaste,[1],6.34^a
same,Overall Flavor,[1],9.88^a
same,Sweet Aromatic Aftertaste,[1],0.50^bcd
same,Sweet Aromatic Flavor,[1],0.71^ab
same,Sweetness,[1],9.59^a
same,Sweetness Aftertaste,[1],5.91^a
"OC[C@H]1O[C@@](CO)(O[C@H]2O[C@H](CO)[C@@H](O)[C@H](O)[C@H]2O)[C@@H](O)[C@@H]1O [Sucrose, sucrose, reference compound]",Metallic Aftertaste,[1],0.67
same,Metallic Flavor,[1],1.04
same,Mouth Numbing,[1],0.57
same,Mouthburn,[1],1.06
same,Stale Flavor,[1],0.50
same,Overall Aroma,[1],0.40
same,Stale Aftertaste,[1],0.58
same,Stale Aroma,[1],0.11
same,Sweet Aromatic Aroma,[1],0.24
same,Astringency,[1],3.03^ab
same,Bitterness,[1],1.47^e
same,Bitterness Aftertaste,[1],0.97^d
same,Black Licorice Aftertaste,[1],0.26^c
same,Black Licorice Flavor,[1],0.13^d
same,Cooling,[1],0.38^bc
same,Overall Aftertaste,[1],5.05^b
same,Overall Flavor,[1],10.73^a
same,Sweet Aromatic Aftertaste,[1],1.01^a
same,Sweet Aromatic Flavor,[1],1.12^a
same,Sweetness,[1],10.45^a
same,Sweetness Aftertaste,[1],4.76^b
"rebaudioside B [Reb. B, reference compound]",Metallic Aftertaste,[1],0.47
same,Metallic Flavor,[1],0.82
same,Mouth Numbing,[1],0.54
same,Mouthburn,[1],0.97
same,Stale Flavor,[1],0.92
same,Overall Aroma,[1],0.28
same,Stale Aftertaste,[1],0.63
same,Stale Aroma,[1],0.26
same,Sweet Aromatic Aroma,[1],0.00
same,Astringency,[1],2.79^bc
same,Bitterness,[1],1.72^de
same,Bitterness Aftertaste,[1],1.07^d
same,Black Licorice Aftertaste,[1],0.80^b
same,Black Licorice Flavor,[1],0.89^c
same,Cooling,[1],0.57^b
same,Overall Aftertaste,[1],3.54^c
same,Overall Flavor,[1],4.20^c
same,Sweet Aromatic Aftertaste,[1],0.46^bcd
same,Sweet Aromatic Flavor,[1],0.54^abc
same,Sweetness,[1],3.55^c
same,Sweetness Aftertaste,[1],3.11^c
"rebaudioside F [Reb. F, reference compound]",Metallic Aftertaste,[1],0.88
same,Metallic Flavor,[1],1.13
same,Mouth Numbing,[1],0.98
same,Mouthburn,[1],1.35
same,Stale Flavor,[1],1.14
same,Overall Aroma,[1],0.29
same,Stale Aftertaste,[1],0.81
same,Stale Aroma,[1],0.00
same,Sweet Aromatic Aroma,[1],0.18
same,Astringency,[1],3.28^a
same,Bitterness,[1],2.64^bc
same,Bitterness Aftertaste,[1],1.70^bc
same,Black Licorice Aftertaste,[1],0.75^b
same,Black Licorice Flavor,[1],0.88^c
same,Cooling,[1],0.57^b
same,Overall Aftertaste,[1],3.89^c
same,Overall Flavor,[1],5.38^b
same,Sweet Aromatic Aftertaste,[1],0.46^bcd
same,Sweet Aromatic Flavor,[1],0.59^abc
same,Sweetness,[1],4.98^b
same,Sweetness Aftertaste,[1],3.34^c

# Reference: patent US9115166B2, “Rebaudioside A derivative products and methods for making” (The Coca-Cola Company, priority 2008, dated 2015)
